Here are results for six compounds from paper PMC3454511 (The Journal of organic chemistry, 2012).

In brackets after ≈: the same amount, converted by molar mass.

The nature of data set [1]: Plasma protein binding by rapid-equilibrium dialysis, human. To be noted: 37 °C for 5 h.
Data set [2] can be described thus: Hepatocyte stability, human. To be noted: % parent remaining at 2 hour.
A short description of data set [3]: Microsomal stability, human. To be noted: % parent remaining at 1 hour.
Data set [4] is described as follows: BBB parallel artificial membrane permeability assay. In kind it is in vitro ADME. To be noted: for BBB PAMPA: Pe; for Papp: PAMPA. For orientation: PAMPA measures passive passage across an artificial lipid membrane.
The next data set is described as follows: Plasma stability, human. To be noted: % parent remaining at 5 h.
A further data set in a line: Plasma stability, mouse. To be noted: % parent remaining at 5 h.
The nature of data set [5]: Hepatocyte stability, mouse. To be noted: % parent remaining at 2 hour.
Data set [6] is described as follows: Solubility in PBS and H2O, dry powder, 24 hour timepoint.
Data set [7] in a line: Plasma protein binding by rapid-equilibrium dialysis, mouse. To be noted: 37 °C for 5 h. For orientation: In equilibrium dialysis free small molecules cross a membrane that holds back macromolecules.
The test system of the next data set is Caco-2 monolayer. In words: Bidirectional Caco-2 permeability. In kind it is in vitro ADME. To be noted: for Caco-2 A-B: A-B direction; for Caco-2 B-A: B-A direction.
Data set [8] in a line: Microsomal stability, mouse. To be noted: % parent remaining at 1 hour.
The nature of the next data set: physchem. To be noted: thermodynamic from solid.
Data set [9] in a line: Bidirectional Caco-2 permeability. In kind it is in vitro ADME. To be noted: human, Caco-2. On the technique in general: Caco-2 cells form a polarised layer with tight junctions and transporters.

Turning to `CCCN1C(CO)C2c3ccccc3N(C(C)=O)CC21` (racemic) [31b, 1-((±)-1-(Hydroxymethyl)-2-propyl-1,2a,3,8b-tetrahydroazeto[2,3-c]quinolin-4 (2H)-yl) ethanone], the protein binding human in data set [1] worked out at 18 % bound. Moreover, the hepatocytes human in [2] came out at 32 % remaining. In addition, the microsomal stability human in [3] was found to be 88 % remaining. In data set [4], the “BBB PAMPA” value is 14 10^−6 cm s^−1. Also, in “Plasma stability, human”, the plasma stability human turned out to be 106 % remaining. Also, the plasma stability mouse in the data set “Plasma stability, mouse” was 98 % remaining. Further, the hepatocytes mouse in data set [5] was 71 % remaining. Also, in data set [6], the “solubility H2O” value came out at 496 µM (≈ 136 µg/mL) and the “solubility PBS” value is listed as 489 µM (≈ 134 µg/mL). For the same compound, the protein binding mouse in [7] is 20 % bound. In addition, in the data set on Caco-2 monolayer, the “Caco-2 A-B” value is reported as 48 10^−6 cm.s^−1 and the “Caco-2 B-A” value is on record as 51 10^−6 cm.s^−1. Further, the microsomal stability mouse in [8] worked out at 64 % remaining.

With `CCCN1[C@H](CO)[C@H](c2ccccc2)[C@@H]1C#N` [26a, (2R,3R,4S)-4-(Carbonitrile)-3-phenyl-1-propylazetidine-2-hydroxymethyl], in data set [1], the protein binding human was 65 % bound. In addition, in data set [2], the hepatocytes human turned out to be 54 % remaining. Also, in [3], the microsomal stability human stood at 88 % remaining. Besides, the plasma stability human in the data set “Plasma stability, human” was 109 % remaining. Besides, the plasma stability mouse in “Plasma stability, mouse” came out at 110 % remaining. Further, in data set [5], the hepatocytes mouse stood at 59 % remaining. For the same compound, in [6], the “solubility H2O” value is reported as greater than 500 µM and the “solubility PBS” value was 402 µM (≈ 92.6 µg/mL). Also, the protein binding mouse in data set [7] was determined as 65 % bound. In the data set with Caco-2 monolayer, the “Caco-2 A-B” value is recorded as 67 10^−6 cm.s^−1 and the “Caco-2 B-A” value is given as 49 10^−6 cm.s^−1. Further, the microsomal stability mouse in data set [8] was 62 % remaining.

In [1], `CCCN1[C@H](CO)[C@H](c2ccccc2)[C@@H]1CN` [26b, ((2S,3R,4R)-4-(Aminomethyl)-3-phenyl-1-propylazetidin-2-yl)methanol] had a protein binding human of 7 % bound. In addition, in data set [2], the hepatocytes human is recorded as 103 % remaining. The microsomal stability human in data set [3] is 73 % remaining. Besides, the “BBB PAMPA” value in [4] is given as 83 10^−6 cm s^−1. Moreover, in the data set “Plasma stability, human”, the plasma stability human came out at 92 % remaining. Besides, the plasma stability mouse in the data set “Plasma stability, mouse” is 100 % remaining. For the same compound, in data set [5], the hepatocytes mouse is reported as 103 % remaining. In addition, in data set [6], the “solubility H2O” value is reported as greater than 500 µM and the “solubility PBS” value was greater than 500 µM. Moreover, the protein binding mouse in data set [7] was determined as 19 % bound. In addition, in the data set on Caco-2 monolayer, the “Caco-2 A-B” value is 16 10^−6 cm.s^−1 and the “Caco-2 B-A” value is 8 10^−6 cm.s^−1. Besides, in [8], the microsomal stability mouse came to 68 % remaining.

Turning to `CCCN1C2CN(C(C)=O)CC1C2c1ccccc1` (centres unmarked) [27b], in data set [1], the protein binding human is reported as 23 % bound. Moreover, the hepatocytes human in data set [2] stood at 104 % remaining. The microsomal stability human in data set [3] was 93 % remaining. For the same compound, the “BBB PAMPA” value in data set [4] was 15 10^−6 cm s^−1. Also, the plasma stability human in “Plasma stability, human” was found to be 83 % remaining. In addition, the plasma stability mouse in “Plasma stability, mouse” came out at 94 % remaining. Also, in data set [5], the hepatocytes mouse came to 94 % remaining. Moreover, in [6], the “solubility H2O” value is 483 µM (≈ 125 µg/mL) and the “solubility PBS” value is 476 µM (≈ 123 µg/mL). This compound registered a protein binding mouse in data set [7] of 13 % bound. Also, in the data set on Caco-2 monolayer, the “Caco-2 A-B” value was 54 10^−6 cm.s^−1 and the “Caco-2 B-A” value was 56 10^−6 cm.s^−1. For the same compound, the microsomal stability mouse in data set [8] is reported as 93 % remaining.

In data set [1], `CCCN1C2CN(S(C)(=O)=O)CC1C2c1ccccc1` (centres unmarked) [27c, 3-(Methylsulfonyl)-7-phenyl-6-propyl-3,6-diazabicyclo[3.1.1]heptane] registered a protein binding human of 31 % bound. For the same compound, the hepatocytes human in [2] was 72 % remaining. Besides, the microsomal stability human in data set [3] was determined as 86 % remaining. The Papp (in general, a coefficient for how fast a substance crosses the barrier) in data set [4] came out at 31 ×10⁻⁶ cm/s. Moreover, in “physchem” (PBS, aqueous buffer), the solubility (as a rule, how much of the substance goes into solution per volume) at 24 h came to 470 µM (≈ 138 µg/mL). In the data set “physchem” (water), this compound yielded a solubility at 24 h of 490 µM (≈ 144 µg/mL). Further, in “Plasma stability, human”, the plasma stability human was 113 % remaining. For the same compound, the plasma stability mouse in the data set “Plasma stability, mouse” is on record as 102 % remaining. For the same compound, in data set [5], the hepatocytes mouse was 67 % remaining. In addition, in data set [7], the protein binding mouse is on record as 39 % bound. For the same compound, in [9], the Papp A→B (usually how fast a substance crosses the layer from the apical side) stood at 66 ×10⁻⁶ cm/s and the Papp B→A (commonly the apparent permeability from the basolateral to the apical side of a cell layer) was 54 ×10⁻⁶ cm/s. Further, in data set [8], the microsomal stability mouse worked out at 72 % remaining.

In [1], `OC[C@@H]1[C@H](c2ccc(Br)cc2)[C@@H]2CNCCCCN12` [29a, ((8R,9R,10S)-9-(4-Bromophenyl)-1,6-diazabicyclo[6.2.0]decan-10-yl) methanol] yielded a protein binding human of 24 % bound. The hepatocytes human in data set [2] was found to be 104 % remaining. The microsomal stability human in data set [3] is 96 % remaining. In data set [4], this compound yielded a Papp of 14 ×10⁻⁶ cm/s. Also, the solubility at 24 h in the data set “physchem” (PBS, aqueous buffer) was 485 µM (≈ 158 µg/mL). The solubility at 24 h in the data set “physchem” (water) is 388 µM (≈ 126 µg/mL). In “Plasma stability, human”, the plasma stability human was determined as 97 % remaining. Besides, the plasma stability mouse in “Plasma stability, mouse” was determined as 94 % remaining. Besides, the hepatocytes mouse in data set [5] was found to be 99 % remaining. Also, the protein binding mouse in data set [7] was 46 % bound. In data set [9], this compound gave a Papp A→B of 14 ×10⁻⁶ cm/s and a Papp B→A of 32 ×10⁻⁶ cm/s. The microsomal stability mouse in data set [8] is given as 98 % remaining.
